Measured values: patent publication US11666517B2, “Antimicrobial composition” (Firmenich SA, priority 2016, dated 2023)
Where two headings read alike, the source gives them in different places.

Key:
[1] = test system: E. coli DSMZ 1103; test: Fractional Inhibitory Concentration Index (FIC) / MIC, 96-well broth dilution of ingredient combinations; assay type: cell-based, Escherichia coli; conditions: for MIC: Escherichia coli, DSMZ1103, 24 h, read-out: Concentration of ingredient alone (Minimal Inhibitory Concentration, MIC alone); for FIC: ingredient alone at its MIC
Method: (§1) The method below allows evaluating antimicrobial activity of different raw materials in combination. The Fractional Inhibitory Concentration Index (FIC Index) is a measure of activity (Garcia L. S., Clinical Microbiology Procedures Handbook, pg. 140-162, 3rd Edition (2010), ASM Press, Washington D.C.) and is calculated according to the formula below:
(§2) [formula] where (MICA alone) and (MICB alone) are the Minimal Inhibitory Concentrations (MIC) of individual ingredients A and B when used in isolation, respectively; whereas (MICA combination) and (MICB combination) are the Minimal Inhibitory Concentrations of materials A and B when tested in combination. Ingredient A corresponds to nona-2,6-dien-1-ol and ingredient B stands for 3-neopentylpyridine, 2-methylhexan-3-one oxime, terpineol or 2-isopropyl-5-methylphenol.
(§3) The Minimal Inhibitory Concentration of a material is defined as the lowest concentration of an agent which can inhibit visible bacterial growth (CLSI M08-A8 Methods for dilution Antimicrobial Susceptibility Test for Bacteria That Grow Aerobically; Approved Standard-Eighth Edition).
(§4) Bacterial suspensions of E. coli DSMZ 1103 and S. aureus DSMZ 1104 were prepared as follows: a frozen stock aliquot was streaked on a Tryptic Soy Agar plate, which was then incubated at 37° C. for 24 hours. A single bacterial colony was picked and inoculated into 50 ml of Mueller Hinton Broth contained in a 100 ml-flask. Incubation was performed overnight at 37° C., under agitation (160 rpm). The following day, the overnight culture was diluted into 50 ml of fresh Mueller Hinton Broth at 1:50 and 1:100 for S. aureus and E. coli, respectively. Growth at 37° C. was continued as described above until the absorbance measured at 600 nm reached 0.7-0.9 and 0.3-0.45 for S. aureus and E. coli, respectively. At this point, cells were harvested by centrifugation (10 min—5000×g—4° C.) and suspended in fresh Mueller Hinton Broth at a concentration of 1×10^8 CFU/ml.
(§5) Solutions of raw materials under evaluation (ingredients A and B) were prepared in ethanol and then serially diluted in the desired concentration into 96-well microtiter plates (10 μl per well). Columns 1, 10, 11 and 12 received only 10 μl ethanol without any testing material. The final concentration of ethanol was 5% w/v for all wells.
(§6) Then, 90 μl of cell suspension as prepared above were added to each well of the microtiter plate, with the exception of column 12 which received 90 μl of Mueller Hinton Broth. The final volume of each well was brought to 200 μl with Mueller Hinton Broth. Each plate was sealed and incubated at 37° C. for 24 hours, under agitation (160 rpm). After incubation, plate reading was performed visually by recording wells with visible bacterial growth. Each combination of materials was tested in triplicate. Turbidity due to potential precipitation of raw materials was taken into account by scoring plates containing identical raw material concentrations, without bacteria.

[2] = test system: S. aureus DSMZ 1104; test: as above; assay type: cell-based, Staphylococcus aureus; conditions: for MIC: Staphylococcus aureus, DSMZ1104, 24 h, read-out: Concentration of ingredient alone (Minimal Inhibitory Concentration, MIC alone); for FIC: ingredient alone at its MIC
Method: as §1, §2, §3, §4, §5, §6

[3] = test system: E. coli DSMZ 1103; test: BCT test in 50% liquid soap base; assay type: cell-based, Escherichia coli; conditions: Table 21: single material 0.3% in 50% liquid soap base, contact time 45 sec
Method: Bacterial solutions of the two strains, E. coli DSMZ 1103 and S. aureus DSMZ 1104, were prepared for BCT test as follows. Stock cultures stored at −80° C. were sub-cultured onto Tryptic Soy Agar (TSA) agar plate media, and incubated at 37° C. for 24 h to obtain single colonies. Single colonies of the primary cultures were streaked onto TSA slant and incubate it at 37° C. incubator for 24 h. Bacterial lawns of the slant culture were collected in PBS buffer to make suspensions with the target level of 1-5×10^8 CFU/mL. The 1:100 dilution of each cell suspension in PBS buffer was used as the bacterial solutions for the BCT test.
Test samples of base with synergistic binary mixtures were prepared as follows. Raw materials of the synergistic binary mixtures (Table 17) were mixed with the liquid soap base PGK-10-003 (Table 18). Aliquots (2.5 g) of each mixture were weighed into 20 ml glass tube with a stirrer bar, and added with equal amount of MilliQ water to make 50% suspension as the test samples for the BCT test.
BCT tests were performed in the 20 ml sample tubes. Each sample tube with 5 g of 50% sample suspension was placed onto a magnetic stirrer, and an aliquot of bacterial solution (100 μl) was added to the sample and allowed for a contact of 45 sec during mixing. Then aliquots (0.5 ml) of the mixture were transferred into 5 ml PBS, and further serial dilutions were made in 4.5 ml PBS. Aliquots (0.5 ml) of PBS dilutions were plated onto duplicate plates of TSA plates using the pour plate method. TSA plates were incubated at 37° C. for 48 h. After incubation, colonies on TSA plates were enumerated and log reduction of each sample were calculated against the CFU counts of the control sample (MilliQ water).

[4] = test system: C. xerosis ATCC 373; test: BCT test in 90% roll-on deodorant base; assay type: cell-based, Corynebacterium xerosis; conditions: Table 25: single material 0.216% in 90% roll-on deodorant base, contact time 120 sec
Method: Bacterial solution of C. xerosis ATCC 373 strain was prepared for BCT test as follows. Stock cultures stored at −80° C. were subcultured onto Tryptic Soy Agar media with 0.5% Tween 80 (TSA-TW80), and incubated at 37° C. for 48 h. The primary cultures were subcultured onto TSA-TW80 again to prepare the secondary cultures. Single colonies of secondary culture were inoculated into 30 ml of Brain Heart Infusion (BHI) broth with 0.5% Tween 80 (BHI-TW80), and incubated at 37° C. 180 rpm for 24 h. Aliquots (1 ml) of the 24 h culture were inoculated into 30 ml of fresh BHI-TW80 broth, and incubated at 37° C. 180 rpm for 48 h. Aliquots (2-3 ml) of the 48 h culture were inoculated into four 50 ml of fresh BHI-TW80 broth medium, and incubated at 37° C. 180 rpm for 4-6 hrs. When the OD reached the target value of 1.6, cells were harvested by centrifugation at 5000 rpm for 10 min, and then resuspended in the same fresh broth media to a target concentration of 10^9 to 10^10 cfu/mL. This suspension was used as the bacterial solution for the BCT test.
Test samples of base with synergistic binary mixtures were prepared as follows. Raw materials of the synergistic binary mixtures were weighed (Table 22), and mixed with 0.3 g PEG-40 Hydrogenated Castor Oil and 9.57 g deodorant roll on base (Table 23).
BCT tests were performed in 15 ml sample tubes. Aliquots (0.9 g) of each sample were weighed into the tube, and an aliquot of bacterial solution (100 μl) was added to the sample and allowed for a contact time of 120 sec with constant mixing. At the end of the contact time, aliquots (9 ml) of BHI broth were added to the tube. The suspensions were mixed well by vortexing, and further 1:10 serial dilutions were made in […] BHI. Aliquots (1 ml) of BHI dilutions were plated onto duplicate plates of TSA-TW80 using pour plate methods. TSA-TW80 plates were incubated at 37° C. for 2-3 days. After incubation, colonies on TSA-TW80 plates were enumerated and log reduction of each sample were calculated against the CFU counts of the control sample (BHI).

[5] = ingredient used in isolation, other ingredient 0 ppm, 37° C., 24 hours

Row | SMILES | MIC [1, 5] | FIC ([1]; other ingredient 0 ppm) | MIC [1] | MIC [2] | FIC ([2]; other ingredient 0 ppm) | Average log reduction ± SEM (n = 2) [3] | Log reduction [4] | MIC [2, 5]
1 | CC(C)=CCCC(C)=CCO (stereo in doubt) [(Z)-3,7-Dimethyl-2,6-octadien-1-ol] | 1200 mg/L | 1.000 | – | – | – | – | – | –
2 | O=Cc1ccc2c(c1)OCO2 [1,3-Benzodioxole-5-carbaldehyde] | – | 1.000 | 1200 mg/L | 1200 mg/L | 1.00 | – | – | –
3 | Cc1ccc(C(C)C)c(O)c1 [2-isopropyl-5-methylphenol] | 600 mg/L | 1.000 | – | – | – | 0.4 ± 0.0 log | 6.0 log | –
4 | CCCC(=NO)C(C)C [2-methylhexan-3-one oxime] | – | – | – | – | 1.00 | – | – | 4800 mg/L
5 | CC(C)(C)Cc1cccnc1 [3-neopentylpyridine] | 600 mg/L | 1.000 | – | – | 1.00 | 0.3 ± 0.2 log | 5.9 log | –
6 | COc1ccc(C=O)cc1 [4-Methoxybenzaldehyde] | 1200 mg/L | 1.000 | – | – | 1.00 | – | – | –
7 | CC/C=C\CC/C=C/CO [(2E,6Z)-nona-2,6-dien-1-ol] | – | 1.000 | – | – | 1.00 | 0.3 ± 0.2 log | 5.7 log | –
8 | CC(C)[C@H]1CC[C@@H](CO)CC1 [cis-4(Isopropyl)cyclohexanemethanol] | 9600 mg/L | 1.000 | – | – | – | – | – | –
9 | CC1=CCC(C(C)(C)O)CC1 (stereo not drawn) [α-terpineol] | – | – | – | – | – | – | – | 1200 mg/L
